No end group written: not given here.
Tests used:
[1] = tested on: HCV IRES RNA; experiment: HCV IRES RNA cleavage, denaturing gel; assay type: biochemical; conditions: RNA 2 μM, RNA to metal complex 1 to 10, 1 mM ascorbic acid, 37° C., 24 hours
Experimental: The cleavage of HCV IRES RNA by GGHG-(D) peptide copper complexes was studied. […] The HCV IRES RNA cleavage reactions by peptide copper complexes, free Cu^2+, or other peptide metal complexes were carried out at 37° C. in a buffer of 50 mM HEPES pH 7.0, 100 mM NaCl, 2 mM MgCl2. After reactions, 2 μL of loading buffer containing 10% glycerol, 0.05M EDTA, and 6M urea was added into each 10 μL reaction mixture and was then heated at 95° C. for 5 min before loading into 20% acrylamide, 8M urea gel with 0.5×TAE buffer and running voltage around 100 V for overnight. Before cleavage reaction, HCV IRES RNA was heated at 95° C. for 5 min and cooled to room temperature in order to fold into correct structure.
The concentration of RNA in cleavage reaction is 2 μM. The ratio of RNA to metal complexes is 1 to 10. The oxidative cleavage reaction is performed by adding ascorbic acid to a final concentration of 1 mM and a total volume of 10 μL at 37° C. for 24 hours. The result of the cleavage reaction is obtained by running a 20% denaturing polyacrylamide gel. […] No hydrolytic product has been observed from the result. […]
The time-dependence of cleavage was also examined. […] After the reaction is finished, the result of the reaction is analyzed by running 20% acrylamide gel. The cleavage effect by peptide copper complexes is analyzed by the intensity of the fluorescent image of each band by Biorad GelDoc. […]

[2] = tested on: pUC19 supercoiled plasmid DNA; experiment: Plasmid DNA cleavage, agarose gel electrophoresis and quantitation; assay type: biochemical
Experimental: Plasmid pUC19 (2686 bp) was purchased from New England Biolabs Inc. The plasmid was transformed into DH5α competent cells, amplified, and pure plasmid isolated using QIAGEN protocols. Fresh plasmid DNA (over 90-95% supercoiled) was prepared before each experiment to avoid contamination by any other form of plasmid DNA. In general, DNA cleavage experiments were performed with 50 μM base pair concentration of pUC19, 25 μM Cu-peptide, and 250 μM ascorbate in 10 mM Tris buffer, pH 7.4, at 37° C. A control reaction was carried out using the same conditions as the cleavage reaction, but lacking the Cu-peptide complex. The reactions were quenched with a loading buffer containing 0.5 M EDTA.
Agarose gel electrophoresis (0.8%) containing ethidium bromide was performed under standard conditions. DNA samples were run on horizontal gels in 1×TAE buffer for 90 min at […].
Quantitation of closed circular, nicked and linear DNA was made by densitometric analysis of ethidium bromide containing agarose gels. Quantitation was performed by fluorescence imaging by use of a Gel-Doc 1000 (BioRad) and data analysis with Multianalysis software (version 1.1) provided by the manufacturer using the volume quantitation method. In all cases, background fluorescence was subtracted by reference to a lane containing no DNA. A correction factor of 1.47 was used for supercoiled DNA, since the ability of ethidium bromide to intercalate into supercoiled DNA (form I) is decreased relative to nicked (form II) and linear DNA (form III). The fraction of each form of DNA was calculated by dividing the intensity of each band by the total intensities of all the bands in the lane. All results were obtained from experiments that were performed at least in triplicate.
Consequently, the reaction was considered in terms of the standard rate law shown in equation 3. The initial rate (V0) corresponding to less than 5% conversion was considered as a function of [complex]^+ (equation 4 and 5). Rate=V=d[DNA]/dt=kobs[complex]t^m (3) • where kobs=kn, [DNA] when t=0, V0=kobs[complex]0^m (4) and ln V0=m ln[complex]0+ln kobs (5) A plot of ln V0 versus ln [[GGH-Cu]^−]0 at constant DNA concentration produced a straight line relationship (R^2=0.99) (FIG. 27A).
Investigation of DNA linearization. Following cleavage, the fraction of full length linear DNA, f(III), is related to the number, n2, of double-strand breaks per molecule given by the first term of a Poisson distribution (equation 1). f(III)=n2exp(−n2) (1) The sum of single-strand, n1, and double-strand, n2, breaks per molecule (n1+n2) was determined from the fraction f(I) of supercoiled DNA remaining after treatment with the [peptide-Cu] reagent. f(I)=exp[−(n1+n2)] […] In these studies, both n1 and n2 were calculated by use of equations (1) and (2).

[3] = tested on: RRE RNA; experiment: RRE RNA cleavage, denaturing PAGE and mass spectrometry; assay type: biochemical, HIV; conditions: for RRE RNA cleavage (PAGE / mass spectrometry): in the presence of ascorbate, 1:1 with RRE RNA, 37° C., 6 hours; for t1 of RRE RNA substrate decrease: [RRE]=5 μM, complex/RRE 1:1, 37° C.
Experimental: Control reactions were carried out at the same time (FIG. 18). The reactions were quenched with a loading buffer containing 8 M Urea and 0.5 M EDTA, but without dyes. The loading buffer with dyes was run in another lane to control the electrophoresis. The reaction samples were loaded onto either 15% or 20% polyacrylamide/8M urea denaturing gels (from American Bioanalytical) and electrophoresed at 300 V for 8 h. To avoid any influence on fluorescein, the reactions and gel eletrophoresis were performed in the dark. Each experiment was carried out at least in triplicate.
RNA cleavage reactions were performed in 40 μl total volumes with 100 μM unlabeled RRE RNA, 1:1 concentration ratio of Cu-peptide complex with 1 mM ascorbate in 20 mM Hepes buffer, 100 mM NaCl, pH=7.4 at 37° C. Control reactions were carried out with RRE RNA and ascorbate. ESI/MS was used to get the mass of the cleavage products. Electrospray ionization (ESI) experiments were performed on a Micromass Q-Tof™ II (Micromass, Wythenshawe, UK) mass spectrometer equipped with an orthogonal nanospray source from New Objective, Inc. (Woburn, Mass.) operated in negative ion mode. Sodium Iodide was used for mass calibration for a calibration range of m/z 500-3000. Salt buffers from the RNA samples were removed using ZipTips (Millipore, Billerica, Mass.) following recommended manufacturer protocols. The elutants from the ZipTip were used directly and infused into the electrospray source at a rate of […]. Optimal ESI conditions were: capillary voltage 3000 V, source temperature 110° C. and a cone voltage of 60 V. Q1 was set to optimally pass ions from m/z 500-3000 and all ions transmitted into the pusher region of the TOF analyzer were scanned over m/z (your ramge) with a 1 s integration time. Data was acquired in continuum mode until acceptable averaged data was obtained (10-15 minutes). ESI data was deconvoluted using MaxEnt I provided by Micromass (FIGS. 19-21) and the cleavage sites were assigned (FIG. 22).

[4] = target: HCV IRES RNA; experiment: Binding to fluorescein-labeled HCV IRES, 96-well fluorescent reader; conditions: 10 nM HCV IRES, 50 mM HEPES pH 7.0, 100 mM NaCl, 2 mM MgCl2; read-out: dissociation constant between HCV IRES and the ligand
Experimental: The binding constants for peptides to HCV IRES was determined by fluorescence methods. The sequence of the HCV IRES RNA is: […] (SEQ ID NO: 33). The sequence of the peptide recognition motif is: Y-(D)-RFK. The sequence of the metal binding peptide is: GGH. The sequence of the ligand having a metal binding domain and a recognition domain is GGHGY-(D)-RFK, where (D) indicates a (D) configuration amino acid.
A 10 nM HCV IRES with a fluoroscein label was titrated with increasing concentrations of the ligand, ranging from 5 to 1000 nM in a 50 mM HEPES pH 7.0, 100 mM NaCl, 2 mM MgCl2 to a total volume […]. The water used in this experiment was treated with DEPC at 37° C. overnight and autoclaved. HCV IRES RNA was heated at 95° C. for three minutes, and then slowly cooled to the room temperature. The binding event was determined by 96-well fluorescent reader with excitation wavelength at 494 nm and emission wavelength at 520 nm. The result data was plotted as fraction versus peptide concentration (FIG. 29) and then fitted with one site-binding model, where y is equal to API, and x is peptide concentration. y=Bx/(Kd+x)

[5] = tested on: GFP-RRE construct (RRE RNA fused downstream of GFP mRNA); assay type: cell-based, Escherichia coli; conditions: 10 μM final concentration; for GFP (GFP-RRE construct) expression, fluorescence intensity/total protein (mg) of control: control without any treatment
Experimental: Escherichia coli strain BL21 (DE3) cells containing pET-21 GFP (as non-specific cleavage control) or pET-21GFP-RRE plasmid were grown to an OD600 of around 0.6, and the over-expression was induced with 0.5 mM IPTG at 37° C. incubation. The cell pellets from 500 1 culture were resuspended in resuspension buffer,^3 then lysed with sonicating. After centrifugation (14,000 rpm for 20 min), the cell lysate for each sample was transferred onto 96 well plate and the fluorescence of GFP protein was monitored by a Perkin Elmer LS50B spectrofluorimeter. Excitation and emission wavelengths were set to 390 nm and 510 nm, respectively. The amount of total protein in each cell lysate was measured with Bio-Rad protein assay.
Basically, once the RRE RNA fused downstream of the GFP mRNA is recognized and cleaved by metal-rev peptide complexes, the expression level of GFP protein will decrease accordingly, which can be monitored by the fluorescence intensity.
The expression level of GFP (GFP-RRE construct) was managed by the fluorescent emission intensity at 510 nm, with λex=390 nm. […] To correct the influence of the total number of cells lysated, the fluorescent emission intensity at 510 nm was divided by the amount of total protein for each sample.

[6] = target: HIV TAR RNA; experiment: Fluorescence quenching binding to 5' FL-labeled TAR RNA (binding specificity); conditions: 20 mM Hepes, 100 mM NaCl, pH 7.4, room temperature
Experimental: (§1) A 6 nM solution of 5′-fluorescein labeled RRE RNA (molecular concentration) was prepared in 20 mM Hepes buffer, 100 mM NaCl, pH=7.4. A 1 μl aliquot of 5 μM (for RRE test) or 25 μM (for TAR test) peptide or Cu-peptide complex was measured in a 300 μl quartz cuvette at room temperature using a Perkin Elmer LS50B spectrofluorimeter, with excitation (slit=6) and emission (slit=6) wavelengths set at 490 nm and 515 nm, respectively. Dissociation constants were obtained by fitting fluorescence quenching date to a one site binding equation r=Bx/(Kd+X) with binding function r (where r=(yt−y0)/(yfinal−yinitial)) versus x as peptide or Cu-peptide complex concentration (FIG. 17). The values for the dilution effect have already been subtracted from each point. Since our Cu-Rev1 complex has very little absorbance (ε515˜30 M^−1cm^−1), the inner filter effect is negligible in this assay.

[7] = target: HIV RRE RNA; experiment: Fluorescence quenching binding to 5'-fluorescein labeled RRE RNA; conditions: 20 mM Hepes, 100 mM NaCl, pH 7.4, room temperature
Experimental: as §1

Compound: [Cu+2] [Cu^2+(aq), reference compound]
- HCV IRES RNA cleavage (gel) [1]: efficiency is significantly lower
- DNA cleavage products / pattern on gel ([2]; with ascorbate): smear pattern
- RRE RNA cleavage (PAGE / mass spectrometry) [3]: random cleavage

Compound: GGHGY-(D)-RFK [the ligand]
- Kd [4]: 5.2 nM

Compound: GGHTRQARRNRRRRWRERQR [Rev1]
- GFP (GFP-RRE construct) expression, fluorescence intensity/total protein (mg) of control [5]: around 40%
- Kd [6]: ~5000 nM
- RRE RNA cleavage (PAGE / mass spectrometry) [3]: no reaction was observed
- Kd [7]: ~30 nM

Compound: TRQARRNRRRRWRERQR [Rev peptide, reference compound]
- effect on GFP (GFP-RRE construct) expression [5]: No decrease

Compound: [GGH-Cu]^−: complex of peptide GGH with divalent copper (Gly-Gly-His; also: complex with divalent copper)
- time to quantitative production of nicked plasmid DNA (form II) ([2]; [DNA]=50 μM, complex 25 μM, ascorbate 250 μM): ≤ 28 min
- kobs, pseudo-first order disappearance of supercoiled DNA ([2]; [DNA]=50 μM, complex 25 μM, ascorbate 250 μM, 10 mM Tris pH 7.4, 37° C.): ~0.07 min⁻¹
- k2, second-order rate constant of DNA cleavage ([2]; from ln V0 plots, with ascorbate): ~39 M⁻¹ s⁻¹
- concentration at which DNA cleavage activity is evident ([2]; in the presence of ascorbate): 10 µM
- DNA cleavage products / pattern on gel ([2]; with ascorbate): linear DNA was not found

Compound: copper complex of Rev1 peptide GGHTRQARRNRRRRWRERQR [Cu-Rev1]
- GFP (GFP-RRE construct) expression, fluorescence intensity/total protein (mg) of control [5]: around 40%
- Kd [6]: ~5000 nM
- RRE RNA cleavage in the absence of ascorbate ([3]; hydrolytic condition): much slower pace
- t1 of RRE RNA substrate decrease ([3]; hydrolytic condition): 6.36 h
- RRE RNA cleavage (PAGE / mass spectrometry) ([3]; listed as Cu-Rev1 peptide complex): three specific cleavage sites
- RRE RNA cleavage (PAGE / mass spectrometry) ([3]; listed as Cu-peptide complex): effective
- t1 of RRE RNA substrate decrease ([3]; oxidative condition with ascorbate): 4.75 h
- Kd [7]: ~35 nM

Reference: patent publication US8445431B2, “Ligands having metal binding ability and targeting properties” (The Ohio State University, priority 2004, dated 2013)
